The subject of assay [1] is strain ATCC®22019 of C. parapsilosis. Put plainly: Sensitivity test by HCA microscopy (chitin level, Calcofluor White; cell count). The format is cell-based, Candida parapsilosis. To be noted: SC medium; for decrease of the number of cells / increase of the chitin level in the wall of the cells: vs cells in the absence of antifungal agent. The protocol:
(§1) The strains of Candida were incubated beforehand at 30° C. overnight in a yeast extract medium—peptone dextrose (YPD) (1% bacto peptone, 0.5% yeast extract, 2% glucose, 1.5% agar).
(§2) Yeast colonies were then removed from YPD medium plates and suspended in a 0.9% NaCl saline solution, in which the cell concentration was estimated by optical microscopy using Kova counting slides.
(§3) A dilution was performed to obtain 15 ml of an inoculum at 3×10^6 CFU/ml, in a synthetic complete (SC) medium at pH 7 (2% glucose, 0.5% ammonium sulfate, 0.17% nitrogen-containing yeast base, 0.2% synthetic complete mixture, and 10% HEPES 1.5M pH 7.2) for C. albicans, C. parapsilosis, C. tropicalis and C. krusei, and in a solution of RPMI 1640 pH 7.3 (10% HEPES 1M pH 7.2) for C. glabrata, so as to reduce the formation of septa and clusters.
(§4) 1 ml of inoculum was then added to 2 ml of antifungal solution prepared in an SC or RPMI medium depending on the species of fungus, so as to obtain a final concentration of yeast of 10^6 CFU/ml and the desired concentration of antifungal agent according to table 1.
(§5) After homogenisation, the cultures were placed at 30° C. at 200 rpm, with the exception of cultures of C. glabrata, which were placed at 35° C. at 200 rpm, and incubated for a period of 6.5 h or 24 h.
(§6) After incubation, 100 μl of the culture of fungi obtained above were transferred in triplicate to 96-well plates, and 2.5 μl of Calcofluor White (CFW) were added to each well so as to mark the chitin of the cell walls of the yeasts.
(§7) A step of acquiring images by automated fluorescence microscopy (ScanR screening station, Olympus), using a 40× lens and a CFW filter, made it possible to obtain 30 images per well so as to capture enough cells to provide statistically significant data. These images were analysed by software (ScanR analysis software, Olympus). Firstly, the background noise was processed so as to improve the contrast between the fluorescence of the yeasts and background noise. A pixel threshold was then defined. Segmentation of the fluorescent elements present in each of the acquired images was then performed using an algorithm predefined in the software, making it possible to determine the limit of each element on the basis of the fluorescence intensity of said element. A size parameter was then applied to select the yeasts and eliminate the aggregates and the fluorescent debris.
(§8) Each element then corresponding to a yeast, it was thus possible, on the basis of these elements predefined beforehand, to define the fluorescence intensity for each of the yeasts, this intensity being directly correlated with the chitin content of their wall.
(§9) On the basis of said defined elements, it was also possible to automatically count the yeasts,
The strain ATCC®22019 of C. parapsilosis was cultivated as described in paragraph I of the Examples section so as to obtain an inoculum at 3×10^6 CFU/ml in 15 ml of SC medium.
(§10) 2 ml of fluconazole solution prepared in the SC medium were then added to 1 ml of this inoculum so as to obtain a final concentration of yeast of 10^6 CFU/ml and of 16 μg/ml in fluconazole.
(§11) The inoculum was treated in the same way so as to obtain cultures of 10^6 CFU/ml and the following concentrations of fluconazole: 0.015 μg/ml, 0.031 μg/ml, 0.062 μg/ml, 0.125 μg/ml, 0.25 μg/ml, 0.5 μg/ml, 1 μg/ml, 2 μg/ml, 4 μg/ml, 8 μg/ml, 16 μg/ml.
After incubation for 6.5 h at 30° C. with stirring at 200 rpm, 100 μl of each culture were removed and transferred to 96-well plates. This procedure was performed in triplicate, and 2.5 μl of CFW were then added to each well.
(§12) The chitin level in the cell wall of the yeasts was then measured by […] analysis (HCA) microscopy, as described in paragraph II of the Examples section, in triplicate for each condition of concentration of fluconazole and without fluconazole. […]

Assay [2] has the same test system. Put plainly: Etest method (MIC). The format is cell-based, Candida parapsilosis. The note with it: for MIC: Lodderomyces parapsilosis, read-out: MIC (Etest method). As for the experimental part: (§13) The Etest® method is a commercial test for determining the sensitivity of a strain, most frequently used routinely in clinical mycology laboratories.
(§14) The Etest® tests were performed according to the manufacturer's instructions. After distributing a standardised Mac Farland 0.5 inoculum (equivalent of […]) over plates of RPMI medium, said plates were incubated for 24 h at 35° C., with the exception of C. glabrata in which case the incubation was extended to 48 h so as to be able to determine the minimum inhibitory concentration (MIC).
(§15) The results of the MICs obtained were interpreted in accordance with the tables of the CLSI (Clinical and Laboratory Standards Institute) and/or of EUCAST (European Committee on Antimicrobial Susceptibility Testing) (Arendrup M C, Cuenca-Estrella M, Lass-Flörl C, Hope W W (2014) Breakpoints for antifungal agents: an update from EUCAST focussing on echinocandins against Candida spp and triazoles against Aspergillus spp. Drug Resist Updat 16(6):81-95. doi:10.1016/j.drup.2014.01.001) (cf. Table 2 taken from Maubon D, Garnaud C, Calandra T, et al. (2014) Resistance of Candida spp. to antifungal drugs in the ICU: where are we now? Intensive Care Med. doi: 10.1007/s00134-014-3404-7) which list the clinical thresholds (CBPs) for the most common species of yeast of the genus Candida as a function of different antifungal agents, or according to the table of epidemiological thresholds (ECVs).

In assay [3] the test system is strain ATCC®7349 of C. tropicalis. Put plainly: Etest method (MIC). The class given is cell-based, Candida tropicalis. To be noted: for MIC: Candida tropicalis, read-out: MIC (Etest method). The protocol: as §13, §14, §15
Assay [4] has the same test system. Put plainly: Sensitivity test by HCA microscopy (chitin level, Calcofluor White; cell count). The format is cell-based, Candida tropicalis. The note with it: SC medium; for decrease of the number of cells / increase of the chitin level in the wall of the cells: vs cells in the absence of antifungal agent; for increase of the chitin level in the wall of the cells: concentration gradient of Table 1. As for the experimental part:
as §1, §2, §3, §4, §5, §6, §7, §8, §9
The strain ATCC®7349 of C. tropicalis was cultivated as described in paragraph I of the Examples section so as to obtain an inoculum at 3×10^6 CFU/ml in 15 ml of SC medium.
as §10, §11
After incubation for 24 h at 30° C. with stirring at 200 rpm, 100 μl of each culture were removed and transferred to 96-well plates. This procedure was performed in triplicate, and 2.5 μl of CFW were then added to each well.
as §12

Where [5] appears, read: 6.5 h at 30° C., concentration gradient of Table 1.
Setting [6] is: ATCC22019, RPMI medium plates, 24 h at 35° C.
Where [7] appears, read: RPMI medium plates, 24 h at 35° C.
[8] abbreviates: ATCC7349, RPMI medium plates, 24 h at 35° C.

Each structure is given as a SMILES string. In brackets after ≈: the same amount, converted by molar mass. Like-named read-outs stand apart in the source and are kept apart here. Starred links: 1 amine or outer side, 2 acyl side, 3 side chain; linkers in the order of their positions; H or OH if unused. Positions of bridges follow the written chain, without caps; N, C: chain ends. Non-standard residues stand in square brackets, D forms with d. Residues, ends and D or L forms follow the SMILES beside them. *: point of attachment. hTyr(3S-OH,4S-OH,3'-OSO3H) = N[C@H](C(=O)O)[C@H](O)[C@@H](O)c1ccc(O)c(OS(=O)(=O)O)c1; Orn(4R-OH,5R-OH) = O=C([C@H](C[C@@H](O)[C@@H](O)N[*:3])N[*:1])[*:2]; Pro(3S-OH,4S-Me) = C[C@H]1CN[C@H](C(=O)O)[C@H]1O; X1 = CCCCCOc1ccc(-c2cc(-c3ccc(C(=O)*)cc3)no2)cc1; Gln(3R-OH) = NC(=O)C[C@@H](O)[C@H](N)C(=O)O; Hyp = O=C(O)[C@@H]1C[C@@H](O)CN1

With `OC(Cn1cncn1)(Cn1cncn1)c1ccc(F)cc1F` [fluconazole], the “phenotype of the strain with respect to the antifungal agent (HCA)” value (“phenotype of the strain” below) was “sensitive (an increase in the chitin level greater than or equal to 20% is observed compared to the chitin level of a population of cells of said fungus in the absence of antifungal agent, as well as a decrease in the number of cells of at least 0.3 log)” in assay [1] (6.5 h at 30° C.) and “sensitive (an increase in the chitin level greater than or equal to 20% is observed compared to the chitin level of a population of cells of said fungus in the absence of antifungal agent, as well as a decrease in the number of cells of at least 0.3 log)” in assay [4] (24 h at 30° C.). Besides, the “decrease of the number of cells” value in assay [1] (6.5 h at 30° C.) and in assay [4] (24 h at 30° C.) was “at least 0.3 log” each time. Besides, the “increase of the chitin level in the wall of the cells” value (“increase of the chitin level” for short) in assay [1] (setting [5]) and in assay [4] (24 h at 30° C.) was “greater than or equal to 20%” in each case. Also, the values for the minimum inhibitory concentration (MIC) in assay [2] (setting [6]) and in assay [3] (setting [8]) were 1 µg/mL (≈ 3.27 µM) and 0.38 µg/mL (≈ 1.24 µM), respectively. Besides, the “phenotype by Etest MIC, interpretation by the EUCAST and/or CLSI tables” value (shortened to “phenotype by Etest MIC, interpretation”) in assay [2] (setting [7]) and in assay [3] (setting [7]) was “sensitive” in each case.
As for `CCCCCOc1ccc(-c2cc(-c3ccc(C(=O)N[C@H]4C[C@@H](O)[C@@H](O)NC(=O)[C@@H]5[C@@H](O)[C@@H](C)CN5C(=O)[C@H]([C@H](O)CC(N)=O)NC(=O)[C@H]([C@H](O)[C@@H](O)c5ccc(O)c(OS(=O)(=O)O)c5)NC(=O)[C@@H]5C[C@@H](O)CN5C(=O)[C@H]([C@@H](C)O)NC4=O)cc3)no2)cc1` [micafungin] (X1-[Orn(4R-OH,5R-OH)]T[Hyp][hTyr(3S-OH,4S-OH,3'-OSO3H)][Gln(3R-OH)][Pro(3S-OH,4S-Me)]; lactam 1-C), the “phenotype of the strain” value is “sensitive (an increase in the chitin level greater than or equal to 20% is observed compared to the chitin level of a population of cells of said fungus in the absence of antifungal agent, as well as a decrease in the number of cells of at least 0.3 log)” in assay [1] (24 h at 30° C.) and “sensitive (an increase in the chitin level greater than or equal to 20% is observed compared to the chitin level of a population of cells of said fungus in the absence of antifungal agent, as well as a decrease in the number of cells of at least 0.3 log)” in assay [4] (6.5 h at 30° C.). Besides, the “decrease of the number of cells” value in assay [1] (24 h at 30° C.) and in assay [4] (6.5 h at 30° C.) was “at least 0.3 log” in each case. Moreover, the “increase of the chitin level” value in assay [1] (24 h at 30° C., concentration gradient up to 1 μg/ml) is given as “greater than or equal to 20%”; in assay [4] (6.5 h at 30° C.), “greater than or equal to 20%”. Also, the MIC (as a rule, the lowest concentration found to suppress growth) in assay [2] (ATCC22019, 24 h) amounted to 0.19 µg/mL (≈ 0.15 µM); in assay [3] (ATCC7349, 24 h), 0.016 µg/mL (≈ 0.0126 µM). In addition, the “phenotype by Etest MIC, interpretation” value in assay [2] (setting [7]) and in assay [3] (setting [7]) was “sensitive” in each case.
On to `C[C@@H](c1ncncc1F)[C@](O)(Cn1cncn1)c1ccc(F)cc1F` [voriconazole], for which the “phenotype of the strain” value is given as “sensitive (an increase in the chitin level greater than or equal to 20% is observed compared to the chitin level of a population of cells of said fungus in the absence of antifungal agent, as well as a decrease in the number of cells of at least 0.3 log)” in assay [1] (6.5 h at 30° C.) and “sensitive (an increase in the chitin level greater than or equal to 20% is observed compared to the chitin level of a population of cells of said fungus in the absence of antifungal agent, as well as a decrease in the number of cells of at least 0.3 log)” in assay [4] (6.5 h at 30° C.). Moreover, the “decrease of the number of cells” value in assay [1] (6.5 h at 30° C.) and in assay [4] (6.5 h at 30° C.) was “at least 0.3 log” throughout. The “increase of the chitin level” value in assay [1] (setting [5]) and in assay [4] (6.5 h at 30° C.) was “greater than or equal to 20%” each time. Moreover, the MIC in assay [2] (setting [6]) and in assay [3] (setting [8]) was 0.023 µg/mL (≈ 0.0658 µM) in each case. Besides, the “phenotype by Etest MIC, interpretation” value in assay [2] (setting [7]) and in assay [3] (setting [7]) was “sensitive” throughout.

These data come from patent publication US11415513B2, “Method for determining the degree of sensitivity of a strain of fungus to an antifungal agent” (UNIVERSITE GRENOBLE ALPES, priority 2015, dated 2022).
